# Like-named read-outs stand apart in the source and are kept apart here.
# How the values were obtained:
# PKN3 = PKN3 (Homo sapiens, UniProt Q6P5Z2); assay: Kinobeads full dose-response competition binding: PKN3; design: endogenous in cells; conditions: for Relative Intensity 0.3nM: 0.3nM compound; for Relative Intensity 0.3nM / Relative Intensity 1nM / Relative Intensity 3nM / Relative Intensity 10nM / Relative Intensity 30nM / Relative Intensity 100nM / Relative Intensity 300nM / Relative Intensity 1000nM: DMSO = 1; for Relative Intensity 1nM: 1nM compound; for Relative Intensity 3nM: 3nM compound; for Relative Intensity 10nM: 10nM compound; for Relative Intensity 30nM: 30nM compound; for Relative Intensity 100nM: 100nM compound; for Relative Intensity 300nM: 300nM compound; for Relative Intensity 1000nM: 1000nM compound; for EC50: eight-dose curve fit;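 as to all read-outs here: inhibitor pre-incubated 45 min at 4 °C in cell lysate (5 mg/ml protein), then competed against Kinobeads ε pulldown for 30 min, bound kinase quantified by nano LC–MS/MS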
# MAP4K2 = assay: Kinobeads competition binding: MAP4K2; design: species or system human; conditions: target MAP4K2
# CDC7 = biological target: T1, CDC7 (Homo sapiens, UniProt O00311); assay: Kinobeads competition binding: CDC7; conditions: target CDC7
# T1 construct: endogenous in cells
# AXL = biological target: T2, AXL (Homo sapiens, UniProt P30530); assay: Kinobeads competition binding: AXL; conditions: target AXL
# T2 construct: endogenous in cells
# T2 sequence (P30530 26-894): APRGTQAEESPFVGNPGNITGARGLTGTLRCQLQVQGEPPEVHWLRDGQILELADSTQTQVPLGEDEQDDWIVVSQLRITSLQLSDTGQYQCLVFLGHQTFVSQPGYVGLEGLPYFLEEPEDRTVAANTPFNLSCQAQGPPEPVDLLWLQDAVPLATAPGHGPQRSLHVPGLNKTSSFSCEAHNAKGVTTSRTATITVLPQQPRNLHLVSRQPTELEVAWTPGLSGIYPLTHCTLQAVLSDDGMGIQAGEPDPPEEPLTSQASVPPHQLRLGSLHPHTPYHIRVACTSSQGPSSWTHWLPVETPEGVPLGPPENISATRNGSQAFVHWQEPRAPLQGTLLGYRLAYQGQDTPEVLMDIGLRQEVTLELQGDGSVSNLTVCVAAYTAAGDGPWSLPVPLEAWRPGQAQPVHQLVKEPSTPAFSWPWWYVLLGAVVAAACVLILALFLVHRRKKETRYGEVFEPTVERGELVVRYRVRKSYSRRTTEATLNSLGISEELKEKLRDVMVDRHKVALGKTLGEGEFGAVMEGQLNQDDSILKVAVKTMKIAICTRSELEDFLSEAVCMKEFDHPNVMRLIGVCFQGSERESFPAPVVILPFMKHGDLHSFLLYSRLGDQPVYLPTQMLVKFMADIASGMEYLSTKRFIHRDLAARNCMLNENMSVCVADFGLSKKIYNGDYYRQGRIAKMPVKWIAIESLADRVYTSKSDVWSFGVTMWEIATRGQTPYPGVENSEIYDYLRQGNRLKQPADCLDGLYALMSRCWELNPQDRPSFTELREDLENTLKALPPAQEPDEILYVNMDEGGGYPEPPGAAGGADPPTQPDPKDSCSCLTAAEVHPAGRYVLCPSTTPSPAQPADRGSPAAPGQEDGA
# Excerpt: Supplement 41589_2023_1459_MOESM4_ESM.xlsx, sheet "CATDS matrix" | column: AXL
# HSP90AA1 = assay: Kinobeads competition binding: HSP90AA1; design: species or system human; conditions: target HSP90AA1;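 also: share of total target engagement due to this protein at one drug concentration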
# LIMK2 = assay: Kinobeads competition binding: LIMK2; design: species or system human; conditions: target LIMK2
# EPHA1 = biological target: T3, EPHA1 (Homo sapiens, UniProt P21709); assay: Kinobeads competition binding: EPHA1; conditions: target EPHA1
# T3 construct: endogenous in cells
# T3 sequence (P21709 26-976): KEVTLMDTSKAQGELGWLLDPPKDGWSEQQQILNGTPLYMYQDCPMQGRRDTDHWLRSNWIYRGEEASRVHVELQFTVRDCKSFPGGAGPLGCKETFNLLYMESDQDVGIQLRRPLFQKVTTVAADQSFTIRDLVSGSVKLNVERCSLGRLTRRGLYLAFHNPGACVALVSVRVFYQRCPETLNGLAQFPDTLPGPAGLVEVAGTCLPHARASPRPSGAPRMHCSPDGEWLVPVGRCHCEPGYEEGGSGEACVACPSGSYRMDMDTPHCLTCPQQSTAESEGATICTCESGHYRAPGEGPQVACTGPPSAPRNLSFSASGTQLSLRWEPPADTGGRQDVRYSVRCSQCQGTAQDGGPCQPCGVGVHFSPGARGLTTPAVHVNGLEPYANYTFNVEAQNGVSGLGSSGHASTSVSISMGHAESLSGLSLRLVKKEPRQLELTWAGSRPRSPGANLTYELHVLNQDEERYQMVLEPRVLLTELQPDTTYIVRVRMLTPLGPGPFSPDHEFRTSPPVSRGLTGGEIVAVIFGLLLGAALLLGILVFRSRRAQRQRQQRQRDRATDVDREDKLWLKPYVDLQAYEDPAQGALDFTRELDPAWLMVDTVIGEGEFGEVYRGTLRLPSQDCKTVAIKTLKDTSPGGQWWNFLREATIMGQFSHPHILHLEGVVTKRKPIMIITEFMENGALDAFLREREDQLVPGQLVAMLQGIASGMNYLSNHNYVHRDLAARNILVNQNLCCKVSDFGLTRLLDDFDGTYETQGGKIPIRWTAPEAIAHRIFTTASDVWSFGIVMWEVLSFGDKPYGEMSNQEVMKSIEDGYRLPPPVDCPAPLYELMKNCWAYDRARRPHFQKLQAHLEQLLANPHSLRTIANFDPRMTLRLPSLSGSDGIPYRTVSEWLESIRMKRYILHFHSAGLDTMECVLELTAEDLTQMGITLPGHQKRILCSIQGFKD
# Excerpt: Supplement 41589_2023_1459_MOESM4_ESM.xlsx, sheet "CATDS matrix" | column: EPHA1
# PIM2 = biological target: T4, PIM2 (Homo sapiens, UniProt Q9P1W9); assay: Kinobeads competition binding: PIM2; conditions: target PIM2
# T4 construct: a mixture of lysates from five cancer cell lines; endogenous in cells
# Excerpt: Supplement 41589_2023_1459_MOESM4_ESM.xlsx, sheet "CATDS matrix" | column: PIM2
# CAMK2B = biological target: T5, CAMK2B (Homo sapiens, UniProt Q13554); assay: Kinobeads competition binding: CAMK2B; conditions: target CAMK2B
# T5 construct: endogenous in cells
# Excerpt: Supplement 41589_2023_1459_MOESM4_ESM.xlsx, sheet "CATDS matrix" | column: CAMK2B
# [1] = Gene Name PKN3, EC50 with Correction, doses in nM, read-out: apparent Kd
# [2] = Kinobeads full dose-response, read-out: Kdapp PKN3
# T1 sequence (O00311 whole entry): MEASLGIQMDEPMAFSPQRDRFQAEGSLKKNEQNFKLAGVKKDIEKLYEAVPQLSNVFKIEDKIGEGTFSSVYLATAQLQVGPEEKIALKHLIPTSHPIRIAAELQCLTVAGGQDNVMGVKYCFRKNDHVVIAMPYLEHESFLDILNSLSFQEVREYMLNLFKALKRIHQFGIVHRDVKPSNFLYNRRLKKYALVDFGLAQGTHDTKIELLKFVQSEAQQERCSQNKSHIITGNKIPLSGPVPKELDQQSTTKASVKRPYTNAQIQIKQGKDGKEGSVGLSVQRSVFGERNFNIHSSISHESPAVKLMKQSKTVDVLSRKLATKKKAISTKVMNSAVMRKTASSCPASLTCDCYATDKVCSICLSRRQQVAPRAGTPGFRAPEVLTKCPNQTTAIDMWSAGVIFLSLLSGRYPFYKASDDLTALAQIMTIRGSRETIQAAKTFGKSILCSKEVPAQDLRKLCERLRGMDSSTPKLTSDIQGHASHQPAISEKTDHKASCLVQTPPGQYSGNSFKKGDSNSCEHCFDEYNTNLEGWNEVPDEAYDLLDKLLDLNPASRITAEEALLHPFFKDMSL
# T5 sequence (Q13554 whole entry): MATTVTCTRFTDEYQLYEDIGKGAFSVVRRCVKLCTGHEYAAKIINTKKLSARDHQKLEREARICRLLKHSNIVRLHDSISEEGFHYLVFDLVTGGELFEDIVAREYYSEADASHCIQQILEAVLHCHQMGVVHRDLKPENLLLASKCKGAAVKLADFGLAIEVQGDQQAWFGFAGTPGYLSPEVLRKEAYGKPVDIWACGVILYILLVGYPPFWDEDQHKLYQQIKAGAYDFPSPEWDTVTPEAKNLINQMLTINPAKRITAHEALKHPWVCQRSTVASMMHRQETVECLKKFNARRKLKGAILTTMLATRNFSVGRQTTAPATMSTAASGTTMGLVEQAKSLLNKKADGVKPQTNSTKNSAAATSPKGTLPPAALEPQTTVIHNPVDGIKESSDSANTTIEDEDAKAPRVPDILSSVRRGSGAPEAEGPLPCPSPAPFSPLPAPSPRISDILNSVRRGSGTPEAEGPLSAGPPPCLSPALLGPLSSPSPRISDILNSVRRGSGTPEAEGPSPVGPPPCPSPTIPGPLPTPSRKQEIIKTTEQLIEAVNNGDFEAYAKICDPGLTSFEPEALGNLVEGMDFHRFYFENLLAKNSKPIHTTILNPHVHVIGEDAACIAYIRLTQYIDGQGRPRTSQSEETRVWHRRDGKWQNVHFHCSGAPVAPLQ
# Sequence of PKN3 (Q6P5Z2 whole entry): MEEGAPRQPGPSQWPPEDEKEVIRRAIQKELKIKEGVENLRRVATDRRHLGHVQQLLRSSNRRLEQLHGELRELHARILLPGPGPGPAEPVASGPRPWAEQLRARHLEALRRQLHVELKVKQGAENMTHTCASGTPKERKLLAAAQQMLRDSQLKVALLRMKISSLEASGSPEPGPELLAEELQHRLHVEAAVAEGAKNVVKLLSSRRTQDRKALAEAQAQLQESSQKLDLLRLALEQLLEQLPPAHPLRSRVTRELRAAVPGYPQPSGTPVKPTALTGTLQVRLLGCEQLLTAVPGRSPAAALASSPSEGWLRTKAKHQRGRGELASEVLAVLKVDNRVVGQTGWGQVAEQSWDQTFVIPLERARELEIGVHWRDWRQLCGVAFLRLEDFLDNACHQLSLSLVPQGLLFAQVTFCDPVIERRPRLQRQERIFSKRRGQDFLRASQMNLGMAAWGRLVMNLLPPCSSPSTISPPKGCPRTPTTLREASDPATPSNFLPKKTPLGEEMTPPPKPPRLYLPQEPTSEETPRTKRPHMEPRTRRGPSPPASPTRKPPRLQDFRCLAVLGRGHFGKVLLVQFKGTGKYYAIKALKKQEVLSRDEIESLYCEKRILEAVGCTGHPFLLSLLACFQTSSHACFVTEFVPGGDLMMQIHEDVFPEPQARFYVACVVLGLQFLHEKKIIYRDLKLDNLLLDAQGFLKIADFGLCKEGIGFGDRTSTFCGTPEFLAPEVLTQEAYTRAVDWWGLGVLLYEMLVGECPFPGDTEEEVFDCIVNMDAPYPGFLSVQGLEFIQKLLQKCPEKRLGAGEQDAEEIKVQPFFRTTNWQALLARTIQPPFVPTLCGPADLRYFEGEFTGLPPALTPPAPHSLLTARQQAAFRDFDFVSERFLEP
# T4 sequence (Q9P1W9 whole entry): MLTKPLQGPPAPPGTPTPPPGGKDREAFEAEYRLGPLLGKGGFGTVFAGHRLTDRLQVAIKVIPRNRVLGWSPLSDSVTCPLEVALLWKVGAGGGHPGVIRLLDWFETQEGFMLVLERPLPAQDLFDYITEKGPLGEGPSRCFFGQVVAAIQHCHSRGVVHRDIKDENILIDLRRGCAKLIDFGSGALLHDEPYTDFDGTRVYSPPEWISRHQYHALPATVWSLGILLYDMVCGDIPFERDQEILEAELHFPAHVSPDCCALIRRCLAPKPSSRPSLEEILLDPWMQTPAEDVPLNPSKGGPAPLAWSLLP
SMILES,Relative Intensity 0.3nM (PKN3; Gene Name PKN3),Relative Intensity 1nM (PKN3; Gene Name PKN3),Relative Intensity 3nM (PKN3; Gene Name PKN3),Relative Intensity 10nM (PKN3; Gene Name PKN3),Relative Intensity 30nM (PKN3; Gene Name PKN3),Relative Intensity 100nM (PKN3; Gene Name PKN3),Relative Intensity 300nM (PKN3; Gene Name PKN3),Relative Intensity 1000nM (PKN3; Gene Name PKN3),Kd (PKN3; [1]) [nM],"EC50 (PKN3; Gene Name PKN3, doses in nM) [nM]",Kd (PKN3; [2]) [nM],CATDS (MAP4K2),CATDS (CDC7),CATDS (AXL),CATDS (HSP90AA1),CATDS (LIMK2),CATDS (EPHA1),CATDS (PIM2),CATDS (CAMK2B)
CCn1c(-c2nonc2N)nc2c(C#CC(C)(C)O)nc(OCCNC)cc21 [GSK949675A],1.302,1.271,1.02,1.139,0.7655,0.7191,0,0,89.8,89.8,90,–,–,–,–,–,–,–,–
CCc1cc2c(cc1N1CCC(N3CCOCC3)CC1)C(C)(C)c1[nH]c3cc(C#N)ccc3c1C2=O [Alectinib],–,–,–,–,–,–,–,–,–,–,–,0,0,0,0,0,0,0,0
CCN1CCN(Cc2ccc(Nc3ncc(F)c(-c4cc(F)c5nc(C)n(C(C)C)c5c4)n3)nc2)CC1 [Abemaciclib],–,–,–,–,–,–,–,–,–,–,–,0,0,0,0,0,0,0,0.1515
Nc1ncnc2[nH]c(-c3ccccc3)nc12 [AH5015_KCGS],–,–,–,–,–,–,–,–,–,–,–,0,0,0,0,0,0,0,0
CCn1c(-c2nonc2N)nc2c(C#CC(C)(C)O)nc(OCCN)cc21 [GSK902056A],1.0043,0.9527,0.8181,0.5011,0.201,0,0,0,10.2,10.2,10,–,–,–,–,–,–,–,–
N#CC1(c2ccc(NC(=O)c3cccnc3NCc3ccncc3)cc2)CCCC1 [Apatinib],–,–,–,–,–,–,–,–,–,–,–,0,0,0,0,0,0,0,0
NCc1ccc(-c2nc(-c3ccncc3)c(-c3ccc(Cl)c(O)c3)[nH]2)cc1 [SB-476429-A],1.299,1.281,1.311,1.076,0.6326,0.3718,0,0,38.4,38.4,38,–,–,–,–,–,–,–,–
CN(C)C/C=C/C(=O)Nc1cc2c(Nc3ccc(F)c(Cl)c3)ncnc2cc1O[C@H]1CCOC1 [Afatinib],–,–,–,–,–,–,–,–,–,–,–,–,–,0,0,–,0,0,0
